Reference: the Kinase Knowledgebase extract (Sharma et al. 2016)

Columns and labels:
EGFR (human) [1] = target: EGFR (human) (UniProt P00533); conditions: a431
EGFR (human) [2] = target: EGFR (human) (UniProt P00533)

Sequence of EGFR (human) (P00533 whole entry, looked up): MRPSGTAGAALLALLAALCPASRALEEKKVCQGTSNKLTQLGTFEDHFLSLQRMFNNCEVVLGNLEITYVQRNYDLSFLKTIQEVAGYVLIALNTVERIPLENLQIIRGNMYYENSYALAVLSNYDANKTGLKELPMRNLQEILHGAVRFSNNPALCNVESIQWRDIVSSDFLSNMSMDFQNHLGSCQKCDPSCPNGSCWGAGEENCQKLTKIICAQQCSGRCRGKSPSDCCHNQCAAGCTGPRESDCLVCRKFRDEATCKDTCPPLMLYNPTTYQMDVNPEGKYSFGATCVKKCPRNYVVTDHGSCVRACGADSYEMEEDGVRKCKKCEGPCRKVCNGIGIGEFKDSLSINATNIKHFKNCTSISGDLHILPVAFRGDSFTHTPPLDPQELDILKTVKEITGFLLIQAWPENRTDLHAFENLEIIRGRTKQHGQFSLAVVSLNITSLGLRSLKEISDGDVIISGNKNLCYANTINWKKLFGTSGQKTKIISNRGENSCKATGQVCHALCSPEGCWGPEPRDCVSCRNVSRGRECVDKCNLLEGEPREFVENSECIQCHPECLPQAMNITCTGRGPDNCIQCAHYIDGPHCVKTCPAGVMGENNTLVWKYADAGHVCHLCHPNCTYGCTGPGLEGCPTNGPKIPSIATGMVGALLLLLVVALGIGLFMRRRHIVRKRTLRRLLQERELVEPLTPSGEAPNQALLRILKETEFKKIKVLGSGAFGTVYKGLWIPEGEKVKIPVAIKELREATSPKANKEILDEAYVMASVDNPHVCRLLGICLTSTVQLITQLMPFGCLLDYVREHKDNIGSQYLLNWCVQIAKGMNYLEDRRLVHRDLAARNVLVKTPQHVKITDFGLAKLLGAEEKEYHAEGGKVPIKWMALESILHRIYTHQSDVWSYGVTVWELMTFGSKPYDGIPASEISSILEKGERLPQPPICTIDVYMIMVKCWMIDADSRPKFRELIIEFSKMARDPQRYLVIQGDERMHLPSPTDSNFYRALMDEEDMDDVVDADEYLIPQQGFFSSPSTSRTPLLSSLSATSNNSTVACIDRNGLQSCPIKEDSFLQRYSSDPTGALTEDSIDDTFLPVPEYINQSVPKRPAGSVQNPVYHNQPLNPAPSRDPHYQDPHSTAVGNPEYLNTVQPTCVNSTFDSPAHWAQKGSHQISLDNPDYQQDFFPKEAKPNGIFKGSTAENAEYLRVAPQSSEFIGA

IC50 (EGFR (human) [1]) [nM] | IC50 (EGFR (human) [2]) [nM] | SMILES
1550 | 17 | O=C(Cn1ccc(-c2ccc3ncnc(Nc4ccc(OCc5cccc(F)c5)c(Cl)c4)c3c2)c1)NCC1(O)CCS(=O)(=O)CC1
21 | 11 | Fc1ccc(Nc2ncnc3ccc(-c4ccc[nH]4)cc23)cc1Cl
450 | 21 | OC(CN1CCCCC1)Cn1ccc(-c2ccc3ncnc(Nc4ccc(OCc5cccc(F)c5)c(Cl)c4)c3c2)c1 (centres undefined)
84 | 36 | CN1CCN(CC(O)Cn2ccc(-c3ccc4ncnc(Nc5ccc(OCc6cccc(F)c6)c(Cl)c5)c4c3)c2)CC1 (centres undefined)
661 | 41 | O=C(Cn1ccc(-c2ccc3ncnc(Nc4ccc(OCc5cccc(F)c5)c(Cl)c4)c3c2)c1)N1CCNCC1
170 | 5 | OC(CN1CCOCC1)Cn1ccc(-c2ccc3ncnc(Nc4ccc5c(cnn5Cc5cccc(F)c5)c4)c3c2)c1 (centres undefined)
49 | 80 | Fc1cccc(COc2ccc(Nc3ncnc4ccc(-c5ccn(Cc6ccncc6)c5)cc34)cc2Cl)c1
210 | 26 | CN1CCN(Cc2cn(-c3ccc4ncnc(Nc5ccc(OCc6ccccn6)c(Cl)c5)c4c3)cc2CCO)CC1
136 | 6 | Cn1cccc1-c1ccc2ncnc(Nc3ccc(OCc4cccc(F)c4)c(Cl)c3)c2c1
501 | 248 | CCN(CC)CCN1CCOC(Cn2ccc(-c3ccc4ncnc(Nc5ccc6c(cnn6Cc6cccc(F)c6)c5)c4c3)c2)C1 (centres undefined)
220 | 54 | OCCc1cn(-c2ccc3ncnc(Nc4ccc(OCc5cccc(F)c5)c(Cl)c4)c3c2)cc1CN1CCCCC1
1390 | 27 | OCC(O)Cn1ccc(-c2ccc3ncnc(Nc4ccc(OCc5cccc(F)c5)c(Cl)c4)c3c2)c1 (centres undefined)
290 | 32 | Fc1cccc(COc2ccc(Nc3ncnc4ccc(-c5ccn(CCCN6CCN(c7cccc(Cl)c7)CC6)c5)cc34)cc2Cl)c1
51 | 51 | O=C(Cn1ccc(-c2ccc3ncnc(Nc4ccc(OCc5cccc(F)c5)c(Cl)c4)c3c2)c1)N1CCN(CCO)CC1
1560 | 24 | OC1CCN(CC(O)Cn2ccc(-c3ccc4ncnc(Nc5ccc6c(cnn6Cc6cccc(F)c6)c5)c4c3)c2)CC1 (centres undefined)
220 | 38 | CCN(CC)C[C@H](O)Cn1ccc(-c2ccc3ncnc(Nc4ccc5c(cnn5Cc5cccc(F)c5)c4)c3c2)c1
10 | 7.5 | CN1CCN(CCNC(=O)c2cn(-c3ccc4ncnc(Nc5ccc(OCc6cccc(F)c6)c(Cl)c5)c4c3)cc2CCO)CC1
362 | 39 | OC(CN1CCC(N2CCCC2)CC1)Cn1ccc(-c2ccc3ncnc(Nc4ccc(OCc5cccc(F)c5)c(Cl)c4)c3c2)c1 (centres undefined)
390 | 71 | CCN(CC)C[C@@H](O)Cn1ccc(-c2ccc3ncnc(Nc4ccc5c(cnn5Cc5cccc(F)c5)c4)c3c2)c1
830 | 16 | CS(=O)(=O)CCNCc1cn(-c2ccc3ncnc(Nc4ccc(OCc5cccc(F)c5)c(Cl)c4)c3c2)cc1C(F)(F)F
80 | 6 | Fc1cccc(Cn2ncc3cc(Nc4ncnc5ccc(-n6cccc6)cc45)ccc32)c1
210 | 4 | OCCc1cn(-c2ccc3ncnc(Nc4ccc(OCc5cccc(F)c5)c(Cl)c4)c3c2)cc1CN1CCOCC1
25 | 30 | O=C(NCCN1CCOCC1)c1cn(-c2ccc3ncnc(Nc4ccc(OCc5ccccn5)c(Cl)c4)c3c2)cc1CCO
350 | 23 | CCN(CC)CC(O)Cn1ccc(-c2ccc3ncnc(Nc4ccc(OCc5cccc(F)c5)c(Cl)c4)c3c2)c1 (centres undefined)
120 | 20 | CCN(CC)CC(O)Cn1ccc(-c2ccc3ncnc(Nc4ccc5c(cnn5Cc5cccc(F)c5)c4)c3c2)c1 (centres undefined)
160 | 9 | O=C(NCCN1CCCC1)c1cn(-c2ccc3ncnc(Nc4ccc(OCc5cccc(F)c5)c(Cl)c4)c3c2)cc1CCO
1280 | 1 | CC(=O)NC1CCN(CC(O)Cn2ccc(-c3ccc4ncnc(Nc5ccc(OCc6cccc(F)c6)c(Cl)c5)c4c3)c2)CC1 (centres undefined)
